According to patent US9695155B2, “Herbicidal substituted pyrimidinyloxy benzene compounds” (E. I. DU PONT DE NEMOURS AND COMPANY, priority 2013, dated 2017):

Tests used:
ragweed [1] = assay: Test A preemergence; assay type: in vivo, Ambrosia elatior
Outline: (§1)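 Greenhouse pot test, loam/sand soil. Formulation: non-phytotoxic solvent mix plus surfactant. Pre: directed spray onto soil after sowing. Post: plants at 1–2 leaf, 2–10 cm. Rated visually vs untreated controls at ~10 d, 0 (no effect) to 100 (complete control).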

Italian ryegrass [2] = assay: Test A preemergence; assay type: in vivo, Lolium multiflorum
Outline: as §1

Italian ryegrass [3] = assay: Test A postemergence; assay type: in vivo, Lolium multiflorum
Outline: as §1

blackgrass [4] = assay: Test A postemergence; assay type: in vivo, Alopecurus myosuroides
Outline: as §1

galium [5] = assay: Test A postemergence; assay type: in vivo, Galium aparine
Outline: as §1

blackgrass [6] = assay: Test C preemergence; assay type: in vivo, Alopecurus myosuroides; conditions: for Blackgrass plant response rating: preemergence
Text: (§2) Seeds of plant species selected from blackgrass (Alopecurus myosuroides), Italian ryegrass (Lolium multiflorum), wheat, winter (winter wheat, Triticum aestivum), galium (catchweed bedstraw, Galium aparine), corn (Zea mays), large (Lg) crabgrass (Digitaria sanguinalis), giant foxtail (Setaria faberii), johnsongrass (Sorghum halepense), lambsquarters (Chenopodium album), morningglory (Ipomoea coccinea), yellow nutsedge (Cyperus esculentus), pigweed (Amaranthus retroflexus), ragweed (common ragweed, Ambrosia elatior), soybean (Glycine max), barnyardgrass (Echinochloa crus-galli), oilseed rape (Brassica napus), waterhemp (common waterhemp, Amaranthus rudis), kochia (Kochia scoparia), wild oat (Avena fatua), surinam grass (Brachiaria decumbens), foxtail, green (green foxtail, Setaria viridis), goosegrass (Eleusine indica), bromegrass, downy (downy bromegrass, Bromus tectorum), nightshade (eastern black nightshade, Solanum ptycanthum), cocklebur (common cocklebur, Xanthium strumarium), cupgrass, woolly (woolly cupgrass, Eriochloa villosa), bermudagrass (Cynodon dactylon), sunflower, (common oilseed sunflower, Helianthus annuus), Russian thistle (Salsola kali), and velvetleaf (Abutilon theophrasti) were planted into a blend of loam soil and sand and treated preemergence with test chemicals formulated in a non-phytotoxic solvent mixture which included a surfactant.
(§3) At the same time, plants selected from these crop and weed species and also barley, winter (winter barley, Hordeum vulgare), windgrass (Apera spica-venti), chickweed (common chickweed, Stellaria media), deadnettle (henbit deadnettle, Lamium amplexicaule), and canarygrass (littleseed canarygrass, Phalaris minor) were planted in pots containing Redi-Earth® planting medium (Scotts Company, 14111 Scottslawn Road, Marysville, Ohio 43041) comprising spaghnum peat moss, vermiculite, wetting agent and starter nutrients and treated with postemergence applications of test chemicals formulated in the same manner. Plants ranged in height from 2 to 18 cm (1- to 4-leaf stage) for postemergence treatments. Treated plants and controls were maintained in a greenhouse for 13 to 15 days, after which time all species were compared to controls and visually evaluated. Plant response ratings, summarized in Table C, are based on a scale of 0 to 100 where 0 is no effect and 100 is complete control. A dash (-) response means no test result.

galium [7] = assay: Test C preemergence; assay type: in vivo, Galium aparine; conditions: for Galium plant response rating: preemergence
Text: as §2, §3

corn = assay: Test C preemergence; assay type: in vivo, Zea mays; conditions: for Corn plant response rating: preemergence
Text: as §2, §3

large (Lg) crabgrass = assay: Test C preemergence; assay type: in vivo, Digitaria sanguinalis; conditions: for Crabgrass, Large plant response rating: preemergence
Text: as §2, §3

giant foxtail = assay: Test C preemergence; assay type: in vivo, Setaria faberii; conditions: for Foxtail, Giant plant response rating: preemergence
Text: as §2, §3

johnsongrass = assay: Test C preemergence; assay type: in vivo, Sorghum halepense; conditions: for Johnsongrass plant response rating: preemergence
Text: as §2, §3

lambsquarters = assay: Test C preemergence; assay type: in vivo, Chenopodium album; conditions: for Lambsquarters plant response rating: preemergence
Text: as §2, §3

yellow nutsedge = assay: Test C preemergence; assay type: in vivo, Cyperus esculentus; conditions: for Nutsedge, Yellow plant response rating: preemergence
Text: as §2, §3

pigweed = assay: Test C preemergence; assay type: in vivo, Amaranthus retroflexus; conditions: for Pigweed plant response rating: preemergence
Text: as §2, §3

ragweed [8] = assay: Test C preemergence; assay type: in vivo, Ambrosia elatior; conditions: for Ragweed plant response rating: preemergence
Text: as §2, §3

barnyardgrass = assay: Test C preemergence; assay type: in vivo, Echinochloa crus-galli; conditions: for Barnyardgrass plant response rating: preemergence
Text: as §2, §3

oilseed rape = assay: Test C preemergence; assay type: in vivo, Brassica napus; conditions: for Oilseed Rape plant response rating: preemergence
Text: as §2, §3

waterhemp = assay: Test C preemergence; assay type: in vivo, Amaranthus rudis; conditions: for Waterhemp plant response rating: preemergence
Text: as §2, §3

[9] = 125 g ai/ha, 0 to 100 scale where 0 is no effect and 100 is complete control
[10] = 500 g ai/ha, 0 to 100 scale where 0 is no effect and 100 is complete control
[11] = 16 g ai/ha, scale 0 to 100 (0 no effect, 100 complete control)
[12] = 62 g ai/ha, scale 0 (no effect) to 100 (complete control)
[13] = 125 g ai/ha, scale 0 (no effect) to 100 (complete control)
[14] = Preemergence, 31 g ai/ha, scale 0 to 100, 0 no effect, 100 complete control
[15] = 31 g ai/ha, 0 to 100 scale where 0 is no effect and 100 is complete control, visual, approximately 10 days
[16] = 31 g ai/ha, 0 to 100 scale, 0 no effect, 100 complete control
[17] = 125 g ai/ha, 0 to 100 scale, 0 no effect, 100 complete control
[18] = 1000 g ai/ha, 0 to 100 scale, 0 no effect, 100 complete control, approx. 10 days
[19] = 1000 g ai/ha, 0 to 100 scale, 0 no effect, 100 complete control

Clc1cnc(Oc2cccc(Br)c2-n2cc(I)nn2)nc1 [Compound 117]
Plant response rating, Ragweed (ragweed [1]; [9]): 20
Ragweed plant response rating (ragweed [1]; [10]): 60
Plant response rating, Ryegrass, Italian (Italian ryegrass [2]; [9]): 20
Ryegrass, Italian plant response rating (Italian ryegrass [2]; [10]): 30
Plant response rating, Ryegrass, Italian (Italian ryegrass [3]; [10]): 90
Plant response rating, Blackgrass (blackgrass [4]; [9]): 40
Plant response rating, Blackgrass (blackgrass [4]; [10]): 80
Plant response rating, Galium (galium [5]; [9]): 100
Plant response rating, Galium (galium [5]; [10]): 100

N#Cc1cccc(Oc2ncc(Cl)cn2)c1-n1cc(OC(F)F)cn1 [Compound 97]
Blackgrass plant response rating (blackgrass [6]; [11]): 0
Blackgrass plant response rating (blackgrass [6]; [12]): 90
Blackgrass plant response rating (blackgrass [6]; [13]): 90
Plant response rating, Blackgrass (blackgrass [6]; [14]): 70
Galium plant response rating (galium [7]; [11]): 85
Galium plant response rating (galium [7]; [12]): 98
Galium plant response rating (galium [7]; [13]): 95
Plant response rating, Galium (galium [7]; [14]): 90
Corn plant response rating (corn; [11]): 0
Corn plant response rating (corn; [12]): 45
Corn plant response rating (corn; [13]): 80
Plant response rating, Corn (corn; [14]): 5
Crabgrass, Large plant response rating (large (Lg) crabgrass; [11]): 98
Crabgrass, Large plant response rating (large (Lg) crabgrass; [12]): 100
Crabgrass, Large plant response rating (large (Lg) crabgrass; [13]): 100
Plant response rating, Crabgrass, Large (large (Lg) crabgrass; [14]): 100
Foxtail, Giant plant response rating (giant foxtail; [11]): 60
Foxtail, Giant plant response rating (giant foxtail; [12]): 100
Foxtail, Giant plant response rating (giant foxtail; [13]): 100
Plant response rating, Foxtail, Giant (giant foxtail; [14]): 100
Johnsongrass plant response rating (johnsongrass; [11]): 10
Johnsongrass plant response rating (johnsongrass; [12]): 90
Johnsongrass plant response rating (johnsongrass; [13]): 90
Plant response rating, Johnsongrass (johnsongrass; [14]): 40
Lambsquarters plant response rating (lambsquarters; [11]): 95
Lambsquarters plant response rating (lambsquarters; [12]): 100
Lambsquarters plant response rating (lambsquarters; [13]): 98
Plant response rating, Lambsquarters (lambsquarters; [14]): 98
Nutsedge, Yellow plant response rating (yellow nutsedge; [11]): 10
Nutsedge, Yellow plant response rating (yellow nutsedge; [12]): 60
Nutsedge, Yellow plant response rating (yellow nutsedge; [13]): 90
Plant response rating, Nutsedge, Yellow (yellow nutsedge; [14]): 20
Pigweed plant response rating (pigweed; [11]): 100
Pigweed plant response rating (pigweed; [12]): 100
Pigweed plant response rating (pigweed; [13]): 100
Plant response rating, Pigweed (pigweed; [14]): 100
Ragweed plant response rating (ragweed [8]; [11]): 35
Ragweed plant response rating (ragweed [8]; [12]): 85
Ragweed plant response rating (ragweed [8]; [13]): 100
Plant response rating, Ragweed (ragweed [8]; [14]): 35
Barnyardgrass plant response rating (barnyardgrass; [11]): 35
Barnyardgrass plant response rating (barnyardgrass; [12]): 100
Barnyardgrass plant response rating (barnyardgrass; [13]): 100
Plant response rating, Barnyardgrass (barnyardgrass; [14]): 95
Oilseed Rape plant response rating (oilseed rape; [11]): 85
Oilseed Rape plant response rating (oilseed rape; [12]): 98
Oilseed Rape plant response rating (oilseed rape; [13]): 90
Plant response rating, Oilseed Rape (oilseed rape; [14]): 85
Waterhemp plant response rating (waterhemp; [11]): 100
Waterhemp plant response rating (waterhemp; [12]): 100
Waterhemp plant response rating (waterhemp; [13]): 100
Plant response rating, Waterhemp (waterhemp; [14]): 100

FCc1cccc(Oc2ncc(F)cn2)c1-n1cc(I)cn1 [Compound 152]
Plant response rating, Ragweed (ragweed [1]; [15]): 20
Plant response rating, Ragweed (ragweed [1]; [9]): 40
Plant response rating, Ryegrass, Italian (Italian ryegrass [2]; [15]): 0
Plant response rating, Ryegrass, Italian (Italian ryegrass [2]; [9]): 0
Plant response rating, Ryegrass, Italian (Italian ryegrass [3]; [16]): 0
Ryegrass, Italian plant response rating (Italian ryegrass [3]; [9]): 20
Plant response rating, Blackgrass (blackgrass [4]; [16]): 50
Blackgrass plant response rating (blackgrass [4]; [9]): 90
Plant response rating, Galium (galium [5]; [16]): 90
Galium plant response rating (galium [5]; [9]): 90

FCc1cccc(Oc2ncc(Cl)cn2)c1-n1cc(I)cn1 [Compound 245]
Plant response rating, Ragweed (ragweed [1]; [15]): 0
Ragweed plant response rating (0 to 100 scale) (ragweed [1]; 125 g ai/ha): 0
Plant response rating, Ryegrass, Italian (Italian ryegrass [2]; [15]): 0
Ryegrass, Italian plant response rating (0 to 100 scale) (Italian ryegrass [2]; 125 g ai/ha): 0
Plant response rating, Ryegrass, Italian (Italian ryegrass [3]; [16]): 0
Plant response rating, Ryegrass, Italian (Italian ryegrass [3]; [17]): 20
Plant response rating, Blackgrass (blackgrass [4]; [16]): 30
Plant response rating, Blackgrass (blackgrass [4]; [17]): 70
Plant response rating, Galium (galium [5]; [16]): 100
Plant response rating, Galium (galium [5]; [17]): 100

FCc1cn(-c2ccccc2Oc2ncc(Cl)cn2)nn1 [Compound 123]
Ragweed plant response rating (ragweed [1]; [18]): 90
Ryegrass, Italian plant response rating (Italian ryegrass [2]; [18]): 70
Plant response rating, Ryegrass, Italian (Italian ryegrass [3]; [19]): 90
Plant response rating, Blackgrass (blackgrass [4]; [19]): 90
Plant response rating, Galium (galium [5]; [19]): 100

Clc1cnc(Oc2ccccc2-n2cc(C3CC3)nn2)nc1 [Compound 160, 5-chloro-2-[2-(4-cyclopropyl-1H-1,2,3-triazol-1-yl)phenoxy]pyrimidine]
Ragweed plant response rating (ragweed [1]; [18]): 100
Ryegrass, Italian plant response rating (Italian ryegrass [2]; [18]): 90
Plant response rating, Ryegrass, Italian (Italian ryegrass [3]; [19]): 90
Plant response rating, Blackgrass (blackgrass [4]; [19]): 100
Plant response rating, Galium (galium [5]; [19]): 100

N#Cc1cnn(-c2c(Br)cccc2Oc2ncc(Cl)cn2)c1 [Compound 140]
Plant response rating, Ragweed (ragweed [1]; [15]): 30
Plant response rating, Ragweed (ragweed [1]; [9]): 70
Plant response rating, Ryegrass, Italian (Italian ryegrass [2]; [15]): 0
Plant response rating, Ryegrass, Italian (Italian ryegrass [2]; [9]): 0
Plant response rating, Ryegrass, Italian (Italian ryegrass [3]; [16]): 0
Ryegrass, Italian plant response rating (Italian ryegrass [3]; [9]): 30
Plant response rating, Blackgrass (blackgrass [4]; [16]): 30
Blackgrass plant response rating (blackgrass [4]; [9]): 70
Plant response rating, Galium (galium [5]; [16]): 80
Galium plant response rating (galium [5]; [9]): 90
